We go through 5 compounds from US9493506B2 (Enanta Pharmaceuticals, Inc., priority 2010, dated 2016).

The EC50 is the concentration needed to bring the measured effect to its halfway point.

Holding throughout (assay type): cell-based, hepatitis C virus (genotype 1a-H77)
Experiment [1] deals with HCV replicon with a D168V mutation in a 1a-H77 background. Put plainly: transient replicon assay, D168V mutation in 1a-H77 background. Particulars: Hepatitis C virus, read-out: EC50 in a transient replicon assay with a D168V mutation in a 1a-H77 background. The gist of the method: (§1)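 Transient transfection of mutant replicon RNA (1a-H77 with NS2–NS5B, or 1b-N with NS3–NS5B plus E1202G/S2204I) by electroporation into IFN-cured Huh7 cells, plated at 7.5×10^3 cells per well in DMEM with 5% FBS. Serial compound dilutions added 4 h post-transfection (0.5% DMSO final).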

Experiment [2] relates to HCV replicon with a R155K mutation in a 1a-H77 background. Put plainly: transient replicon assay, R155K mutation in 1a-H77 background. Conditions: Hepatitis C virus, read-out: EC50 in a transient replicon assay with a R155K mutation in a 1a-H77 background. The gist of the method: as §1
On the technique in general: A replicon is a self-replicating genome or part of one, used to study replication in cells.

For experiment [3], the system named is HCV replicon with a D168E mutation in a 1a-H77 background. Put plainly: transient replicon assay, D168E mutation in 1a-H77 background. Conditions: Hepatitis C virus, read-out: EC50 in a transient replicon assay with a D168E mutation in a 1a-H77 background. The gist of the method:
as §1

Turning to `CC(C)(C)OC(=O)N[C@H]1CCCCC/C=C\[C@@H]2C[C@@]2(C(=O)NS(=O)(=O)C2CC2)NC(=O)[C@@H]2C[C@@H](Oc3nc4cc(F)ccc4nc3C(C)(F)F)CN2C1=O` [Example 116, tert-butyl (2R,6S,13aS,14aR,16aS,Z)-14a-(cyclopropylsulfonylcarbamoyl)-2-(3-(1,1-difluoroethyl)-7-fluoroquinoxalin-2-yloxy)-5,16-dioxo-1,2,3,5,6,7,8,9,10,11,13a,14,14a,15,16,16a-hexadecahydrocyclopropa[e]pyrrolo[1,2-a][1,4]diazacyclopentadecin-6-ylcarbamate], the results for the EC50 in experiment [1], in experiment [2] and in experiment [3] were 25 to 50 nM, less than 1 nM and 3 to 20 nM, respectively.
On to `CC(C)(C)OC(=O)N[C@H]1CCCCC/C=C\[C@@H]2C[C@@]2(C(=O)NS(=O)(=O)C2(C)CC2)NC(=O)[C@@H]2C[C@@H](Oc3nc4cc(F)ccc4nc3C(C)(F)F)CN2C1=O` [Example 118, tert-butyl (2R,6S,13aS,14aR,16aS,Z)-2-(3-(1,1-difluoroethyl)-7-fluoroquinoxalin-2-yloxy)-14a-(1-methylcyclopropylsulfonylcarbamoyl)-5,16-dioxo-1,2,3,5,6,7,8,9,10,11,13a,14,14a,15,16,16a-hexadecahydrocyclopropa[e]pyrrolo[1,2-a][1,4]diazacyclopentadecin-6-ylcarbamate], for which the concentration for a half-maximal effect (EC50) in experiment [1] was 250 to 1000 nM; in experiment [2], 1 to 10 nM; in experiment [3], greater than 100 nM.
As to `Cc1onc(C(=O)N[C@H]2CCCCC/C=C\[C@@H]3C[C@@]3(C(=O)NS(=O)(=O)C3(C)CC3)NC(=O)[C@@H]3C[C@@H](Oc4nc5cc(F)ccc5nc4C(C)(F)F)CN3C2=O)c1C` [Example 120, N-((2R,6S,13aS,14aR,16aS,Z)-2-(3-(1,1-difluoroethyl)-7-fluoroquinoxalin-2-yloxy)-14a-(1-methylcyclopropylsulfonylcarbamoyl)-5,16-dioxo-1,2,3,5,6,7,8,9,10,11,13a,14,14a,15,16,16a-hexadecahydrocyclopropa[e]pyrrolo[1,2-a][1,4]diazacyclopentadecin-6-yl)-4,5-methylisoxazole-3-carboxamide], the values for the half-maximal effective concentration (EC50) in experiment [1], in experiment [2] and in experiment [3] were less than 25 nM, less than 1 nM and less than 3 nM, respectively.
With `CCc1nc2ccc(F)cc2nc1O[C@@H]1C[C@H]2C(=O)N[C@]3(C(=O)NS(=O)(=O)C4CC4)C[C@H]3/C=C\CCCCC[C@H](NC(=O)OC(C)(C)C)C(=O)N2C1` [Example 121, tert-butyl (2R,6S,13aS,14aR,16aS,Z)-14a-(cyclopropylsulfonylcarbamoyl)-2-(3-ethyl-7-fluoroquinoxalin-2-yloxy)-5,16-dioxo-1,2,3,5,6,7,8,9,10,11,13a,14,14a,15,16,16a-hexadecahydrocyclopropa[e]pyrrolo[1,2-a][1,4]diazacyclopentadecin-6-ylcarbamate], the EC50 in experiment [1] lay in the range of 50 to 250 nM; in experiment [2] it was 1 to 10 nM; in experiment [3], 3 to 20 nM.
Take `CCc1nc2ccc(F)cc2nc1O[C@@H]1C[C@H]2C(=O)N[C@]3(C(=O)NS(=O)(=O)C4CC4)C[C@H]3/C=C\CCCCC[C@H](NC(=O)c3ccon3)C(=O)N2C1` [Example 122, N-((2R,6S,13aS,14aR,16aS,Z)-14a-(cyclopropylsulfonylcarbamoyl)-2-(3-ethyl-7-fluoroquinoxalin-2-yloxy)-5,16-dioxo-1,2,3,5,6,7,8,9,10,11,13a,14,14a,15,16,16a-hexadecahydrocyclopropa[e]pyrrolo[1,2-a][1,4]diazacyclopentadecin-6-yl)isoxazole-3-carboxamide]: the results for the EC50 in experiment [1], in experiment [2] and in experiment [3] were 250 to 1000 nM, 1 to 10 nM and 20 to 50 nM, respectively.
